Measurements taken from PMC12282101, “Heat shock protein 90 chaperone activity is required for hepatitis A virus replication” (Journal of Virology, 2025).
Where a name gives a salt, the structure may show the parent alone.

Experiments:
18f-NLuc reporter virus = assay: microbe, parasite or virus in culture; type: cell-based, Hepatitis A virus; conditions: for activity at 10 µM: Hepatovirus A, Huh-7.5.1, 72 h, read-out: Normalized HAV production
Huh-7.5.1 cells = assay: Cell viability in the chemical screen (Cell TiterGlo); conditions: 10 µM compound, 72 h

Row | SMILES | activity at 10 µM (18f-NLuc reporter virus) | Viability Percent DMSO (Huh-7.5.1 cells) | Normalized HAV production (18f-NLuc reporter virus)
1 | O=c1c2ccccc2[se]n1-c1ccccc1 [Ebselen] | 56% | 123 Percent DMSO | 
2 | O=C1Nc2ccc(Cl)cc2[C@@](C#CC2CC2)(C(F)(F)F)O1 [Efavirenz] | 46% | 165 Percent DMSO | 
3 | COc1cc2c(cc1Cc1cccc(Cl)c1F)c(=O)c(C(=O)O)cn2[C@H](CO)C(C)C [Elvitegravir] | 95% | 118 Percent DMSO | 
4 | C[C@H](NC(=O)C(=O)Nc1ccccc1C(C)(C)C)C(=O)N[C@@H](CC(=O)O)C(=O)COc1c(F)c(F)cc(F)c1F [Emricasan] | 164% | 90 Percent DMSO | 
5 | CCn1cc(C(=O)O)c(=O)c2cc(F)c(N3CCNCC3)nc21 [Enoxacin] | 89% | 159 Percent DMSO | 
6 | C=C1[C@H](CO)[C@@H](O)C[C@@H]1n1cnc2c(=O)[nH]c(N)nc21 [Entecavir hydrate] | 93% | 125 Percent DMSO | 
7 | CCOC(=O)CCC(=O)O[C@H]1[C@H](O[C@@H]2[C@@H](C)[C@H](O[C@H]3C[C@@](C)(OC)[C@@H](O)[C@H](C)O3)[C@@H](C)C(=O)O[C@H](CC)[C@@](C)(O)[C@H](O)[C@@H](C)C(=O)[C@H](C)C[C@@]2(C)O)O[C@H](C)C[C@@H]1N(C)C [Erythromycin ethylsuccinate] | 60% | 107 Percent DMSO | 
8 | CC[C@@H](CO)NCCN[C@@H](CC)CO [Ethambutol dihydrochloride] | 83% | 112 Percent DMSO | 
9 | CC[n+]1c(-c2ccccc2)c2cc(N)ccc2c2ccc(N)cc21 [Ethidium bromide] | 4.56% | 85 Percent DMSO | 
10 | Cc1cc(C#N)cc(C)c1Oc1nc(Nc2ccc(C#N)cc2)nc(N)c1Br [Etravirine] | 113% | 112 Percent DMSO | 
11 | CC(=O)OCC(CCn1cnc2cnc(N)nc21)COC(C)=O [Famciclovir] | 115% | 123 Percent DMSO | 
12 | NC(=O)c1nc(F)c[nH]c1=O [Favipiravir] | 56% | 128 Percent DMSO | 
13 | O=c1[nH]c(=O)n([C@H]2C[C@H](O)[C@@H](CO)O2)cc1F [Floxuridine] | 42% | 86 Percent DMSO | 
14 | O=S(=O)(CCC(F)=C(F)F)c1ncc(Cl)s1 [Fluensulfone] |  | 128 Percent DMSO | 0.97
15 | O=c1[nH]cc(F)c(=O)[nH]1 [Fluorouracil] | 84% | 103 Percent DMSO | 
16 | COc1ccc([C@H]2OC[C@H]3[C@@H]2CO[C@H]3c2ccc(O[C@@H]3O[C@H](CO)[C@@H](O)[C@H](O)[C@H]3O)c(OC)c2)cc1OC [Forsythin] |  | 127 Percent DMSO | 1.06
17 | O=C(O)P(=O)(O)O [Foscarnet sodium] | 109% | 94 Percent DMSO | 
18 | COc1cnc(-n2cnc(C)n2)c2c1c(C(=O)C(=O)N1CCN(C(=O)c3ccccc3)CC1)cn2COP(=O)(O)O [Fostemsavir] | 92% | 129 Percent DMSO | 
19 | Nc1nc(O)c2ncn(COC(CO)CO)c2n1 [Ganciclovir] | 87% | 115 Percent DMSO | 
20 | CC1(C)[C@@H](O[C@H]2O[C@H](C(=O)O)[C@@H](O)[C@H](O)[C@H]2O[C@@H]2O[C@H](C(=O)O)[C@@H](O)[C@H](O)[C@H]2O)CC[C@]2(C)[C@H]3C(=O)C=C4[C@@H]5C[C@@](C)(C(=O)O)CC[C@]5(C)CC[C@@]4(C)[C@]3(C)CC[C@@H]12 [Glycyrrhizin] | 79% | 124 Percent DMSO | 
21 | Nc1nc2c(ncn2[C@@H]2O[C@H](CO)[C@@H](O)[C@H]2O)c(=O)[nH]1 [Guanosine] | 88% | 126 Percent DMSO | 
22 | COc1ccnc(C[S+]([O-])c2nc3ccc(-n4cccc4)cc3[n-]2)c1C.[Na+] (stereo not shown) [Ilaprazole sodium] |  | 159 Percent DMSO | 0.66
23 | O[C@H]1[C@H](O)[C@@H](O)[C@H](O)[C@@H](O)[C@H]1O [Inositol] | 122% | 93 Percent DMSO | 
24 | CC(=O)N(CC(O)CO)c1c(I)c(C(=O)NCC(O)CO)c(I)c(C(=O)NCC(O)CO)c1I (stereo not shown) [Iohexol] | 157% | 74 Percent DMSO | 
25 | O=C(/C=C/c1ccc(O)cc1)c1ccc(O)cc1O [Isoliquiritigenin] | 104% | 100 Percent DMSO | 
26 | O=C(Nc1nc2ccc3scnc3c2s1)c1ccc2ccccc2c1 [KIN1148] |  | 107 Percent DMSO | 1.39
